Like-named read-outs stand apart in the source and are kept apart here.
Columns and labels:
recombinant human GALK1 = recombinant human GALK1 (Homo sapiens, UniProt P51570); test: hGALK1 biochemical activity assay (Kinase-Glo Plus, ATP depletion)
Summary of the method: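 Turnover is measured as ATP depletion by Kinase-Glo Plus luminescence after a 1 h room-temperature reaction. Compounds span 11 concentrations, 57.4 μM–0.97 nM, in final 20 mM HEPES pH 8.0 with 5 mM MgCl2. The substrate solution held 35 μM ATP; the added solution held 5 nM human or mouse GALK1 and 100 μM galactose.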

PAMPA permeability = conditions: for Papp: ADME P: PAMPA permeability (class), Tables 17-19, class probably colour-coded, colour lost
[1] = aqueous kinetic solubility
hGALK1m = biological target: T1, hGALK1m (Homo sapiens, UniProt P51570, E253A/K252A); test: in vitro hGALK1 activity assay of the structure-based optimisation (Example 12, Tables 17-20); assay type: biochemical
T1 construct: made in house; host or cells: E. coli HMS174
Experimental: In vitro hGALK1 activity assays were performed as previously described. Liu et al., Bioorg. Med. Chem. Lett. 25(3): 721-727 (2015), which is incorporated by reference herein for the specific teachings thereof. The biochemical assay was performed by coupling the activity of recombinant human or mouse GALK1 to the Kinase-Glo Plus luminescent ATP detection kit, using ATP depletion as a measure of GALK1 turnover. Specifically, three μL/well of ATP substrate solution (35 μM ATP) in assay buffer (20 mM HEPES pH 8.0, 5 mM MgCl2, 60 mM NaCl, 1 mM DTT, 0.01% BSA final concentration) was dispensed into 1536-well assay plates (Greiner, white solid-bottom medium-binding plates). Aliquots of compound (23 nL solubilized in DMSO) were transferred to the assay plates using a Kalypsys 1536-well pintool such that 11 concentrations with 1/3 dilutions ranging from 57.4 μM-0.97 nM are tested. One μL/well of GALK-galactose solution (5 nM GALK1, 100 μM galactose) in assay buffer was then added, yielding a final reaction volume of 4 μL/well. Following a 1-hour room temperature incubation, 4 μL of Kinase-Glo Plus detection reagent was added to provide an ATP-dependent luminescent readout (final assay volume: 8 μL/well). Luminescence was detected using a ViewLux plate reader (PerkinElmer) after a 10-minute incubation, using a 1 second exposure time and 2× binning.
The in vitro hGALK1 activity assay was performed as previously described. Liu et al., Bioorg. Med. Chem. Lett. 25(3): 721-727 (2015). For the measurement of cellular Gal-1P reduction, compounds at different concentrations were added to cultured patient fibroblast at 80% confluency. After incubating the compounds for 16 hours, 10 mM galactose was added to the culture. After another 4 hours, cells were washed with cold PBS buffer 3× and harvested for gal-1P measurement, according to the previously published method. Liu et al., Bioorg. Med. Chem. Lett. 25(3): 721-727 (2015).

[2] = rat microsomal stability (RLM); conditions: for half-life: rat, rat liver microsomes
recombinant mouse GALK1 = recombinant mouse GALK1 (Mus musculus, UniProt Q9R0N0); test: mGALK1 biochemical activity assay (Kinase-Glo Plus, ATP depletion)
Summary of the method: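 Recombinant GALK1 (5 nM) with 100 μM galactose; GALK1 turnover read as ATP depletion by Kinase-Glo Plus luminescence. Reaction ran 1 h at room temperature before detection reagent was added.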

[3] = Tables 2-15, 35 μM ATP, 100 μM galactose, 1 h, bracketed figure after some values (e.g. −1.2) is undefined and not reported, read-out: hGALK IC50
[4] = recombinant human GALK1, Kinase-Glo Plus ATP depletion, read-out: hGALK
[5] = 1 h, Table 17, read-out: Efficacy
[6] = Table 17, amide group optimization, no unit in table
[7] = Tables 2-15, 35 μM ATP, 100 μM galactose, 1 h, bracketed figure after some values is undefined and not reported, read-out: mGALK IC50
[8] = recombinant mouse GALK1, Kinase-Glo Plus ATP depletion, read-out: mGALK
[9] = Tables 18-19, read-out: Max Response (%)
[10] = Tables 18-19 and text of Example 12
[11] = Tables 18-20 and text of Example 12

T1 sequence (P51570 whole entry K252A/E253A): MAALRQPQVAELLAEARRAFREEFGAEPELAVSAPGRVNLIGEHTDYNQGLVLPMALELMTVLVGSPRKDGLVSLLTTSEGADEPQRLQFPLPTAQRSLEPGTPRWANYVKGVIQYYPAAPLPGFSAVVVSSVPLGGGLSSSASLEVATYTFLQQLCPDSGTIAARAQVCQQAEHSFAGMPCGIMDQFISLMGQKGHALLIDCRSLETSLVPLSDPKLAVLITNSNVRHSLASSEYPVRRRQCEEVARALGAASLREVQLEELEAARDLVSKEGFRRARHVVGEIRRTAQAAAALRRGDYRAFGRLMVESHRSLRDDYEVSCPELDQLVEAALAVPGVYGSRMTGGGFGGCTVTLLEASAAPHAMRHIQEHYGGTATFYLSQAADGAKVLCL
Chain of recombinant human GALK1 (P51570 whole entry): as the sequence (P51570 whole entry K252A/E253A) above, with A252K, A253E counted along it
Chain of recombinant mouse GALK1 (Q9R0N0 whole entry): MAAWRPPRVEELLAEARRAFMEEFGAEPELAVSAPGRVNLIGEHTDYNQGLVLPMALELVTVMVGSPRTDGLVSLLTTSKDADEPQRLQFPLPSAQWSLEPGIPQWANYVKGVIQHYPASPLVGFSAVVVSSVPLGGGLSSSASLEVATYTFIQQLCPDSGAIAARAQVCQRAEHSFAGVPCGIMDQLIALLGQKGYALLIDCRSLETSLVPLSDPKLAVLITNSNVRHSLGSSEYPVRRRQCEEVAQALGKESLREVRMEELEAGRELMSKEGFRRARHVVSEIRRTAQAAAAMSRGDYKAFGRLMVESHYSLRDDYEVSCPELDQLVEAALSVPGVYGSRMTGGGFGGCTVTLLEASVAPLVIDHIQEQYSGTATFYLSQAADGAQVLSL

IC50 (recombinant human GALK1; [3]) [µM] | IC50 (recombinant human GALK1; [4]) [µM] | Papp (PAMPA permeability; PAMPA) [×10⁻⁶ cm/s] | half-life [2] [min] | IC50 (recombinant mouse GALK1; [7]) [µM] | IC50 (recombinant mouse GALK1; [8]) [µM] | Emax (hGALK1m; [9]) [%] | IC50 (hGALK1m; [10]) [µM] | Sol. [1] [µg/mL] | Metab. Stabil. (m) ([2]; microsomal half-life) | also measured | Structure (SMILES)
1.72 | 1.72 | < 10 | < 10 | – | – | – | – | – | – | Perm. (1 × 10^−6 cm/sec) (PAMPA permeability; PAMPA): <1 1 × 10^−6 cm/sec; Sol. ([1]; aqueous kinetic solubility): >75 µg/mL; Emax (hGALK1m; [5]): 91%; IC50 (hGALK1m; [6]): 1.7 µM; Metab. Stabil. (m) ([2]; microsomal stability half-life): >30 m | CC1=C(C(=O)Nc2ncc(C(=O)O)s2)C(c2ccccc2Cl)N=C(Nc2nc3ccccc3o2)N1 (stereo not shown) [Compound 199, 2-(2-(benzo[d]oxazol-2-ylamino)-4-(2-chlorophenyl)-6-methyl-1,4-dihydropyrimidine-5-carboxamido)thiazole-5-carboxylic acid]
1.93 | 1.93 | < 10 | < 10 | 12.2 | 12.2 | – | – | – | – | Perm. (1 × 10^−6 cm/sec) (PAMPA permeability; PAMPA): 507.4 1 × 10^−6 cm/sec; Sol. ([1]; aqueous kinetic solubility): <1 µg/mL; Emax (hGALK1m; [5]): 84%; IC50 (hGALK1m; [6]): 1.2 µM; Metab. Stabil. (m) ([2]; microsomal stability half-life): 6.432 m | CC1=C(C(=O)NCc2cncs2)C(c2ccccc2Cl)N=C(Nc2nc3ccccc3o2)N1 (stereo not shown) [Compound 232, 2-(benzo[d]oxazol-2-ylamino)-4-(2-chlorophenyl)-6-methyl-N-(thiazol-5-ylmethyl)-1,4-dihydropyrimidine-5-carboxamide]
4.85 | 4.85 | < 10 | < 10 | 15.3 | 15.3 | 100 | 1.8 | – | – | change of potency versus parent compound (in words) (hGALK1m): compromised the potency | CC1=C(C(=O)Nc2cc(C(=O)O)ccn2)C(c2cccc(F)c2Cl)N=C(Nc2nc3ccc(F)cc3o2)N1 (stereo not shown) [Compound 48, 2-(4-(2-chloro-3-fluorophenyl)-2-((6-fluorobenzo[d]oxazol-2-yl)amino)-6-methyl-1,4-dihydropyrimidine-5-carboxamido)isonicotinic acid]
7.69 | – | < 10 | < 10 | 21.7 | 21.7 | 100 | 5.5 | >76 | >30 | – | CC1=C(C(=O)Nc2cc(C(=O)O)ccn2)C(c2ccccc2Cl)N=C(Nc2nc3cc(N)ccc3o2)N1 (stereo not shown) [Compound 12, 2-(2-((5-aminobenzo[d]oxazol-2-yl)amino)-4-(2-chlorophenyl)-6-methyl-1,4-dihydropyrimidine-5-carboxamido)isonicotinic acid]
17.2 | 17.2 | < 10 | < 10 | 38.5 | 38.5 | 75 | > 15 | >84 | >30 | change of potency versus parent compound (in words) (hGALK1m): significantly impaired the potency | CC1=C(C(=O)Nc2cc(C(=O)O)ccn2)C(c2cccc(S(N)(=O)=O)c2)N=C(Nc2nc3ccc(F)cc3o2)N1 (stereo not shown) [Compound 78, 2-(2-((6-fluorobenzo[d]oxazol-2-yl)amino)-6-methyl-4-(3-sulfamoylphenyl)-1,4-dihydropyrimidine-5-carboxamido)isonicotinic acid]
– | 21.7 | < 10 | < 10 | 48.5 | 48.6 | 100 | > 15 | 61.135 | >30 | Perm. (1 × 10^−6 cm/sec) (PAMPA permeability): <1 1 × 10^−6 cm/sec; change of potency versus parent compound (in words) (hGALK1m): greatly compromised the potencies | CC1=C(C(=O)Nc2cc(C(=O)O)ccn2)C(c2ccccc2Cl)N=C(Nc2nc3cccc(C(F)(F)F)c3o2)N1 (stereo not shown) [Compound 16, 2-(4-(2-chlorophenyl)-6-methyl-2-((7-(trifluoromethyl)benzo[d]oxazol-2-yl)amino)-1,4-dihydropyrimidine-5-carboxamido)isonicotinic acid]
3.43 | – | < 10 | < 10 | 17.2 | 17.2 | 100 | 3.6 | – | – | – | CC1=C(C(=O)Nc2cc(C(=O)O)ccn2)C(c2ccccc2Cl)N=C(Nc2nc3cc(F)ccc3o2)N1 (stereo not shown) [Compound 13, 2-(4-(2-chlorophenyl)-2-((5-fluorobenzo[d]oxazol-2-yl)amino)-6-methyl-1,4-dihydropyrimidine-5-carboxamido)isonicotinic acid]
– | – | – | – | – | – | – | – | – | – | IC50 (hGALK1m; [11]): 0.3 µM | CC1=C(C(=O)Nc2cc(C(=O)O)ccn2)[C@@H](c2ccccc2Cl)N=C(Nc2nc3ccccc3o2)N1 [S-enantiomer of Compound 194]
– | – | – | – | – | – | – | 15 | – | – | – | CC1=C(C(=O)Nc2cc(C(=O)O)ccn2)C(c2ccccc2Cl)N=C(Nc2nc3ccccc3o2)N1 (stereo not drawn) [R-enantiomer of Compound 194]
– | 3.85 | – | – | 21.7 | 21.7 | 100 | 3.3 | – | – | – | CC1=C(C(=O)Nc2cc(C(=O)O)ccn2)C(c2ccccc2Cl)N=C(Nc2nc3c(F)cccc3o2)N1 (stereo not shown) [Compound 8, 2-(4-(2-chlorophenyl)-6-methyl-2-((4-fluorobenzo[d]oxazol-2-yl)amino)-1,4-dihydropyrimidine-5-carboxamido)isonicotinic acid]
– | – | – | – | – | – | – | – | – | – | IC50 (hGALK1m; [11]): 0.029 µM | CC1=C(C(=O)NCc2cnn(C)c2)[C@@H](c2ccc(C)cc2Cl)N=C(Nc2nc3cccc(N)c3o2)N1 [S-enantiomer of Compound 83]
– | 4.85 | – | – | – | 10.9 | – | – | <1 | >30 | Perm. (1 × 10^−6 cm/sec) (PAMPA permeability): <1.5 1 × 10^−6 cm/sec | CC1=C(C(=O)Nc2nnc(-c3cccnc3)s2)C(c2ccccc2Cl)N=C(Nc2nc3cc(C)ccc3o2)N1 (stereo not shown) [Compound 96, 4-(2-chlorophenyl)-2-((5-methylbenzo[d]oxazol-2-yl)amino)-6-methyl-N-(5-(pyridin-3-yl)-1,3,4-thiadiazol-2-yl)-1,4-dihydropyrimidine-5-carboxamide]
– | 4.32 | – | – | – | 10.9 | – | – | <1 | >30 | Perm. (1 × 10^−6 cm/sec) (PAMPA permeability): 171.11 1 × 10^−6 cm/sec | CC1=C(C(=O)Nc2ccccn2)C(c2ccccc2Cl)N=C(Nc2nc3ccc(F)cc3o2)N1 (stereo not shown) [Compound 43, 4-(2-chlorophenyl)-2-((6-fluorobenzo[d]oxazol-2-yl)amino)-6-methyl-N-(pyridin-2-yl)-1,4-dihydropyrimidine-5-carboxamide]
12.2 | 12.2 | – | – | 19.3 | 19.3 | – | – | – | – | Perm. (1 × 10^−6 cm/sec) (PAMPA permeability; PAMPA): <1 1 × 10^−6 cm/sec; Sol. ([1]; aqueous kinetic solubility): >74 µg/mL; Metab. Stabil. (m) ([2]; microsomal stability half-life): >30 m | CC1=C(C(=O)Nc2cc(C(=O)O)ccn2)[C@@H](c2ccccc2Cl)N=C(Nc2nc3ccccc3o2)N1 [Compound 209, (S)-2-(2-(benzo[d]oxazol-2-ylamino)-4-(2-chlorophenyl)-6-methyl-1,4-dihydropyrimidine-5-carboxamido)isonicotinic acid]
– | – | – | – | – | – | – | – | – | – | IC50 (recombinant mouse GALK1; recombinant mouse GALK1, Kinase-Glo Plus ATP depletion, bracketed figure in the cell, e.g. (−1.2), is not defined in the text shown, read-out: mGALK): 17.2 µM; IC50 (recombinant human GALK1; recombinant human GALK1, Kinase-Glo Plus ATP depletion, bracketed figure in the cell, e.g. (−1.2), is not defined in the text shown, read-out: hGALK): 7.69 µM; Perm. (1 × 10^−6 cm/sec) (PAMPA permeability; PAMPA): 746.9 1 × 10^−6 cm/sec; Sol. ([1]; aqueous kinetic solubility): 12.8 µg/mL; Metab. Stabil. (m) ([2]; microsomal stability half-life, minutes): >30 m | CC1=C(C(=O)Nc2nncs2)C(c2nn(C)cc2Cl)N=C(Nc2nc3ccccc3o2)N1 (stereo not shown) [Compound 253, 2-(benzo[d]oxazol-2-ylamino)-4-(4-chloro-1-methyl-1H-pyrazol-3-yl)-6-methyl-N-(1,3,4-thiadiazol-2-yl)-1,4-dihydropyrimidine-5-carboxamide]
